The text below walks through data of patent publication US5457106A, “Pyridine derivatives, their production and use” (Takeda Chemical Industries, Ltd., priority 1991, dated 1995).

In general, IC50 refers to the concentration that gives 50% inhibition. By inhibition is commonly meant the change of the read-out against control, counted positive when it falls.

Structures can show the parent of a compound that is named as a salt. Where two headings read alike, the source gives them in different places.

The subject of experiment [1] is Rat reversed passive Arthus reaction (skin). Kind of experiment: Rat reversed passive Arthus reaction (skin) inhibitory activity. The note with it: po, orally, read-out: Inhibitory percentage (reversed passive Arthus reaction). The format is in vivo, rat (Jcl: SD). The procedure: Rat Reversed Passive Arthus Reaction (skin) Inhibitory Activity This reaction was-induced by using domestic rabbit anti-egg albumin (EA) antiserum according to the method of Chang and Otterness [Chang, Y. -H. and Otterness, I. G.: Eur. J. Pharmacol. 69, 155 (1981)]. Using six Jcl: SD male rats (7 weeks old, weight about 250 g) per one group, the hair was removed from the back under ether anesthesia, 1 ml of 0.5% EA physiological saline was injected […] into the tail vein, and further each 0.1 ml of diluted antiserum (6 mg protein antibody/ml) was injected in the back on both dexter and sinister sides. […] Acceleration of permeability through the vessel by the reaction was measured by injecting 1 ml of 1% Evans blue physiological saline intravenously at three hours after the induction of the reaction. Then, after 30 minutes, the rat was sacrificed by exsanguination. The skin was peeled off and the area of pigment spot (length×breadth, mm^2) was measured.

The target of a further experiment is T1, cyclooxygenase (Rattus norvegicus, UniProt Q63921).
T1 construct: from tissue; host or cells: platelets in platelet-rich plasma from rat abdominal aorta blood (Jcl:wistar, male)
T1 sequence (Q63921 27-602): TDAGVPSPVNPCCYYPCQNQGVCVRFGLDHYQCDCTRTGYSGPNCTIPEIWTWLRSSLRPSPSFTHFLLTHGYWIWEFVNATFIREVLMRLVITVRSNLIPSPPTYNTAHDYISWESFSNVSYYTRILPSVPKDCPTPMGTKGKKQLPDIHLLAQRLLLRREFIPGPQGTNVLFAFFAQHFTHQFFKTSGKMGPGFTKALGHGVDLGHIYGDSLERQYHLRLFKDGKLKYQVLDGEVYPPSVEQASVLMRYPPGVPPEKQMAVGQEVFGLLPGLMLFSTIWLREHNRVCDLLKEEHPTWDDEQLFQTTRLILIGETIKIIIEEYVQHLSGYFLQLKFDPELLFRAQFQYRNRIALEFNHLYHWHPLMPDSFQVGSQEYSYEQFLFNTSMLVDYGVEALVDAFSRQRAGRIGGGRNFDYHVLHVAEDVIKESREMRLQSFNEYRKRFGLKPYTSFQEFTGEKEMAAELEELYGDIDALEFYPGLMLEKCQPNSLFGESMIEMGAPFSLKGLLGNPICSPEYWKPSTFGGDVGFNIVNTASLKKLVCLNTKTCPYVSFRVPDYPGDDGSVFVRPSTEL
Kind of experiment: Cyclooxygenase inhibitory activity (HHT formation from arachidonic acid in rat platelet-rich plasma). The format is cell-based, rat (Jcl:wistar).

Another experiment relates to ICAM-1. Description: Adhesion protein expression inhibitory activity, ICAM-1. The format is cell-based. On the procedure: (§1) Adhesion Protein Expression Inhibitory Activity The various concentrations of test compounds were added to the human umbilical cord-derived vascular endothelial cells [sold by Klabo] which were seeded in the gelatin coat plate and the mixture was incubated at 37° C. for 15 minutes. Then, the human tumor necrosis factor-α[TNF-α; sold by Genzyme] was added therein to the final concentration of 1 ng/ml and incubation was carried out at 37° C. for 3 hours for expression of ELAM-1 and for 6 hours for that of ICAM-I. After the reaction, the cells were fixed using glutaraldhyde and the expression amount of ELAM-1 and ICAM-1 was measured by the cell-ELISA method. That is, the expression was determined by […] the adhesion proteins on the cells in the system using anti-ELAM-1 antibody BBA-2 and anti-ICAM-1 antibody BBA4 as the first antibody as well as horseradish peroxidase-labeled rabbit anti-mouse IgG antibody as the second antibody.

Experiment [2] concerns ART (antigen-responding T-cell). Description: In vitro ART (antigen-responding T-cell) proliferation test. It counts as cell-based, Lewis rat. The note with it: Rattus norvegicus, T-cell, read-out: % Inhibition of ART growth.
For experiment [3], the system named is Mouse acetic acid writhing. Description: Mouse acetic acid writhing inhibitory activity. It counts as in vivo, mouse (Slc: ICR). The note with it: orally; for inhibition in vivo at 50 mg/kg: Mus musculus, po, 20 min, read-out: Inhibitory percentage (acetic acid writhing); for Inhibitory percentage (acetic acid writhing): 50 mg/kg, hydrochloride. On the procedure: Mouse Acetic Acid Writhing Inhibitory Activity
Ten male Slc: ICR mice, 4 weeks old, per 1 group were used. A test compound was administered orally, and after 30 minutes, 0.1 ml/10 g body weight of physiological saline containing 0.6% acetic acid was injected intraperitoneally. For 20 minutes, writhing (in agony condition) response by administration of acetic acid was counted regarding individual animals. The inhibitory percentage relative to the mean response counts of a control group was calculated regarding respective animals in a test compound administration group. The test compound was suspended in 5% gum arabic solution, and the administration volume was 0.2 ml/10 g.
(In general: Writhing tests count abdominal constrictions after an irritant is injected.)

For experiment [4], the system named is Rat carrageenin pedal edema. Description: Rat carrageenin pedal edema inhibitory activity. It counts as in vivo, rat (Jcl: SD). The following applies: Rattus norvegicus, po, 3 h, 50 mg/kg, orally, 3 hours after carrageenin; read-out: Inhibitory percentage (carrageenin pedal edema). The method, boiled down: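 Male Jcl:SD rats (6 weeks, 160-220 g) received test compound orally as a 5% gum arabic suspension, topped up with water to 5 ml/rat. One hour later 0.05 ml of 1% carrageenin was injected subcutaneously into the right hind foot pad. Edema volume was the foot volume increase 3 hours post-injection.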
On the technique in general: In the carrageenan paw model, swelling and tenderness develop within hours.

The test system of experiment [5] is brewer's yeast induced pyrexia. Kind of experiment: Antipyretic activity (brewer's yeast induced pyrexia). It counts as in vivo, rat (DS line). The following applies: 50 mg/kg, orally. The method, boiled down: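 Male DS rats (7 weeks, 200-240 g) made febrile by s.c. 15% brewer's yeast 18 h before dosing; only animals at ≥38.5° C used. Compound given orally versus solvent control, with rectal temperature taken by thermistor hourly for 5 h post-dose.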

For a further experiment, the system named is ELAM-1. Description: Adhesion protein expression inhibitory activity, ELAM-1. The format is cell-based. The procedure:
as §1

The target of another experiment is T2, 5-Lipoxygenase (Rattus norvegicus, UniProt P12527).
T2 construct: rat basophilic leukemia cell suspension; endogenous in cells
T2 sequence (P12527 1-673): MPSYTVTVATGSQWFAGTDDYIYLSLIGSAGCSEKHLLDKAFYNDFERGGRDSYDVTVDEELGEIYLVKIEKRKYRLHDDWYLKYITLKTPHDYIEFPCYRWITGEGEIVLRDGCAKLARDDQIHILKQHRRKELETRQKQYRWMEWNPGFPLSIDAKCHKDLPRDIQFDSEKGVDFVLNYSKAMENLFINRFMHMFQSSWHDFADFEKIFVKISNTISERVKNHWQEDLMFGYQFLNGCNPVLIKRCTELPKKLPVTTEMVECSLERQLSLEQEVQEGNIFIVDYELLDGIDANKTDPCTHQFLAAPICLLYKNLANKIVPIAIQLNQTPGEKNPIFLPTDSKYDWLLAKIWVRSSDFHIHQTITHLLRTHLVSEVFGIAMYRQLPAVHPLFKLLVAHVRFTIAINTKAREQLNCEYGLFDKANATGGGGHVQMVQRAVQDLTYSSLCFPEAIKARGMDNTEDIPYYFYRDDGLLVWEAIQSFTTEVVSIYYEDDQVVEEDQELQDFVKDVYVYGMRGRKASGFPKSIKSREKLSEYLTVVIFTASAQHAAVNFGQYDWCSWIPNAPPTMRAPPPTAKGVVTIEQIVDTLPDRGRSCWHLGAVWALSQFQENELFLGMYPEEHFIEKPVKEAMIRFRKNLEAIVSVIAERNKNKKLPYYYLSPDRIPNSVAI
Description: 5-Lipoxygenase inhibitory activity in rat basophilic leukemia cells. It counts as cell-based. On the procedure: 5-Lipoxygenase Inhibitory Activity […] Then, 0.1 ml of mast cell medium containing 50 μg of arachidonic acid and 1 μg of calcium ionophore (A-23187) were added and the mixture was allowed to stand at 37° C. for 15 minutes. Ethanol (1 ml) was added thereto and the mixture was shaken well, and filtered (Membrane filter, 0.45 μm). […] As a control, the measurement was carried out according to the same manner except that 0.01 ml of the solvent used for dissolving the test compound was used in place of the test compound. The inhibitory percentage (%) was calculated from the following equation to obtain IC50.

Where [6] appears, read: 30 μM, human umbilical vascular endothelial cells, TNF-α; 360 min.
The mark [7] stands for this setting: 5-HETE, read-out: 5-Lipoxygenase inhibitory activity, 5-HETE IC50.
Where [8] appears, read: LTB4, read-out: 5-Lipoxygenase inhibitory activity, LTB4 IC50.
The mark [9] stands for this setting: 10 μM, human umbilical vascular endothelial cells, TNF-α; 180 min.

Regarding `O=C(C=Cc1cccs1)NCCCSc1ccncc1` [Example 56, 4-[3-(2-thiopheneacrylamino)propylthio]pyridine], the inhibition in vivo at 50 mg/kg in experiment [1] was 32%.
`O=C(NCCSc1ccncc1)c1cc2ccccc2s1` [Example 123, 4-[2-(thianaphthene-2-carbonylamino)ethylthio]pyridine] gave an IC50 against cyclooxygenase of 3.3 µM. Moreover, the “Expression Inhibitory Potency, ICAM-1” value with ICAM-1 (setting [6]) is reported as 34%. Moreover, in experiment [2], the inhibition at 1 µM worked out at 15% and the inhibition at 10 µM came to 66%.
In turn, `O=C(NCCCSc1ccncc1)c1cnccn1` [Example 124, 4-[3-(2-pyrazinecarbonylamino)propylthio]pyridine] returned an IC50 on cyclooxygenase of 5.5 µM. The inhibition in vivo at 50 mg/kg came out at 69% in experiment [3] and 51% in [4]. Besides, in [5], the “Antipyretic activity, peak time” value amounted to 2 h. Further, in [5] (at peak time), the “Antipyretic activity, .increment. °C.” value was -1.52 °C.
At cyclooxygenase, `O=c1[nH]c2ccccc2c(=O)n1CCCCSc1ccncc1` [Example 146, 3-[4-(4-pyridylthio)butyl]quinazolin-2,4(1H,3H)-dione] registered an IC50 of 5.1 µM. Further, in [2], the inhibition at 1 µM was 22% and the inhibition at 10 µM was 20%. Further, the “Expression Inhibitory Potency, ELAM-1” value in the experiment on ELAM-1 (13 μM, human umbilical vascular endothelial cells, TNF-α; 180 min) is recorded as 33%.
Turning to `O=C1SC(=Cc2ccc(Cl)cc2)C(=O)N1CCCCSc1ccncc1` [Example 151, 4-[4-[5-(4-chlorobenzylidene)-2,4-thiazolidinedione]butylthio]pyridine], the “Expression Inhibitory Potency, ICAM-1” value with ICAM-1 (setting [6]) was found to be 60%. Moreover, in [2], the inhibition at 1 µM is -1%. Moreover, in experiment [2], the inhibition at 10 µM stood at 74%. The IC50 came out at 1.8 µM on 5-Lipoxygenase (setting [7]) and 1.1 µM on 5-Lipoxygenase (setting [8]).
In the case of `O=C1C(=Cc2ccccc2)SC(=S)N1CCCCSc1ccncc1` [Example 153, 4-[4-(5-benzylidenerhodanine)butylthio]pyridine], in [2], the inhibition at 1 µM was -20% and the inhibition at 10 µM stood at 75%. In addition, the inhibition in vivo at 50 mg/kg in experiment [3] is 49%. At 5-Lipoxygenase (setting [7]), the IC50 worked out at 1.3 µM. Moreover, the IC50 on 5-Lipoxygenase (setting [8]) came out at 0.79 µM.
Consider `CC1(C)OC(=O)N(CCCCSc2ccncc2)C1=O` [Example 167, 4-(4-(5,5-dimethyloxazolidine-2,4-dione)butylthio]pyridine], for which the inhibition in vivo at 50 mg/kg in experiment [3] came out at 62%.
In the case of `O=c1c2ccccc2oc(=S)n1CCSc1ccncc1` [Example 170, 4-[2-[2H-1,3-benzoxadine-2-thion-4(3H)-on]ethylthio]pyridine], the inhibition in vivo at 50 mg/kg in experiment [3] amounted to 91%.
In the case of `O=C1c2ccccc2S(=O)(=O)N1CSc1ccncc1` [Example 172, 4-saccharinmethylthiopyridine], the “Expression Inhibitory Potency, ICAM-1” value with ICAM-1 (13 μM, human umbilical vascular endothelial cells, TNF-α, 360 min) is on record as 34%. Moreover, the “Expression Inhibitory Potency, ELAM-1” value with ELAM-1 (13 μM, human umbilical vascular endothelial cells, TNF-α, 180 min) amounted to 31%. Moreover, in experiment [4], the inhibition in vivo at 50 mg/kg came to 19%.
`O=C1CSC(=O)N1CSc1ccncc1` [Example 176, 4-(2,4-thiazolidinedionemethylthio)pyridine hydrochloride]: in experiment [3], the “Inhibitory percentage (acetic acid writhing)” value is reported as 87%.
Take `CC1(C)OC(=O)N(CSc2ccncc2)C1=O` [Example 179, 4-(5,5-dimethyloxazolidine-2,4-dionemethylthio)pyridine hydrochloride]: in experiment [3], the “Inhibitory percentage (acetic acid writhing)” value is listed as 66%.
For `O=C1c2ccccc2S(=O)(=O)N1CSc1ccncc1` [Example 180, 4-(saccharinmethylthio)pyridine hydrochloride], the “Expression Inhibitory Potency, ICAM-1” value in the experiment with ICAM-1 (13 μM, human umbilical vascular endothelial cells, TNF-α, 360 min, hydrochloride) stood at 35%. Moreover, in the experiment on ELAM-1 (13 μM, human umbilical vascular endothelial cells, TNF-α, 180 min, hydrochloride), the “Expression Inhibitory Potency, ELAM-1” value is recorded as 29%.
With `O=C1SC(=Cc2ccncc2)C(=O)N1CCCCSc1ccncc1` [Example 184, 4-[4-[5-(4-pyridyl)methylene-2,4-thiazolidinedione]butylthio]pyridine], the “Expression Inhibitory Potency, ELAM-1” value in the experiment with ELAM-1 (setting [9]) was found to be 47%.
Same read-out and setting: to `O=C1SC(=Cc2cccnc2)C(=O)N1CCCCSc1ccncc1` [Example 185, 4-[4-[5-(3-pyridyl)methylene-2,4-thiazolidinedione]butylthio]pyridine] belongs 33%.
With `CCCCCCCCCC=C1SC(=O)N(CCCCSc2ccncc2)C1=O` [Example 187, 4-[4-(5-nonylmethylene-2,4-thiazolidinedione)butylthio]pyridine hydrochloride], in the experiment on ICAM-1 (10 μM, human umbilical vascular endothelial cells, TNF-α; 360 min), the “Expression Inhibitory Potency, ICAM-1” value is on record as 79%. In the experiment on ELAM-1 (setting [9]), the “Expression Inhibitory Potency, ELAM-1” value stood at 53%.
On to `O=c1c2ccccc2n(CCCCSc2ccccn2)c(=O)n1CCCCSc1ccccn1` [Example 198, 1,3-bis[4-(2-pyridylthio)butyl]quinazoline-2,4(1H,3H)-dione], for which the “Expression Inhibitory Potency, ICAM-1” value with ICAM-1 (13 μM, human umbilical vascular endothelial cells, TNF-α; 360 min) turned out to be 25%.
